{"source": "paper PMC5994430", "about": "“Mitochondrial Delivery of Phenol Substructure Triggers Mitochondrial Depolarization and Apoptosis of Cancer Cells” (Frontiers in Pharmacology, 2018)", "key": {"BEAS-2B cells": {"tested_on": "BEAS-2B cells", "experiment": "Cell viability (neutral red)", "type": "cell-based, Human", "conditions": "BEAS-2B; 0.1 μM, 72 h", "description": "(§1) Human colon cancer HT29 cells, colon-derived normal fibroblast CCD-18Co cells, lung cancer A549 cells, normal human bronchial epithelial (immortalized with adenovirus 12-SV40 virus hybrid Ad12SV40) BEAS-2B cells, breast cancer MDA-MB-231 cells, normal breast epithelial MCF10A cells, human osteosarcoma U-2OS cells were purchased from ATCC (Manassas, VA, United States). […] All subjects gave written informed consent in accordance with the Declaration of Helsinki. Cells were maintained in medium supplemented with 10% v/v fetal bovine serum, 1% v/v penicillin-streptomycin, 1% v/v L-glutamine. Morphological analysis was performed with a bright field microscope (Leica Microsystems, Wetzlar, Germany). At least 5 fields/experimental condition were examined.\n(§2) LDH activity was measured in the extracellular medium and in the cell lysate: 50 μl of extracellular medium or 5 μl of cell lysate were incubated at 37°C with 5 mM NADH. The reaction was started by adding 20 mM pyruvic acid and was monitored for 6 min, measuring absorbance at 340 nm using a Synergy HT Multi-Detection Microplate Reader (Bio-Tek Instruments, Winoosky, MT, United States). […] Both intracellular and extracellular enzyme activities were expressed as μmol NADH oxidized/min/dish. The results were expressed as percentage of extracellular LDH versus total (intracellular plus extracellular) LDH. […] The absorbance of untreated cells was considered as 100% viability; the results were expressed as percentage of viable cells versus untreated cells. IC50 was calculated with the CompuSyn software^1."}, "A549 cells": {"tested_on": "A549 cells", "experiment": "Cell viability (neutral red)", "type": "cell-based, Human", "conditions": "A549; 0.1 μM, 72 h", "description": "as §1, §2"}}}
{"compound": "C[P+](c1ccccc1)(c1ccccc1)c1ccccc1.[Cl-]", "note": "[TPMP, methyltriphenylphosphonium chloride, reference compound]", "values": [{"measurement": "cell viability", "setting": "BEAS-2B cells", "value": "did not reduce viability"}, {"measurement": "cell viability", "setting": "A549 cells", "value": "did not reduce viability"}]}
